Test results published in article PMC6980506, “Comparative pharmacokinetics and pharmacodynamics of the advanced Retinol-Binding Protein 4 antagonist in dog and cynomolgus monkey” (PLoS ONE, 2020).

Legend:
[1] = Metabolic stability in dog liver microsomes; type: in vitro ADME; details: male, beagle, pH 7.4, 1 mg/mL, read-out: Microsomal Stability (% Remaining at 30 min)
Experimental: (§1) All measurements were done in duplicate. Pooled mixed gender human donor microsomes, male beagle dog microsomes and male cynomolgus monkey were obtained from BioIVT (Baltimore, MD). […] A mixture containing 50 mM potassium phosphate buffer pH 7.4 and 1 mg/mL liver microsomes was pre-warmed for 10 min at 37°C in a shaking water bath, followed by the addition of test compound. Final DMSO concentration in the reaction mix was 0.1%. […] The final volume of the reaction mixture was 800 μL, containing 1 mg/mL liver microsomes, and 1 μM test compound. Aliquots (100 μL) of reaction mixtures were removed from the incubation plate at pre-defined timepoints and mixed with 150 μL of ice-cold acetonitrile, incubated on ice for 15 min, and samples were centrifuged (3,600 rpm, 10 min, 4°C) to precipitate protein. The supernatants were diluted 1:1 (v/v) with water containing the internal standard and subjected to the LC/MS analysis.

[2] = Metabolic stability in cynomolgus monkey liver microsomes; type: in vitro ADME; details: male, pH 7.4, Cyno liver microsomes, 1 mg/mL, read-out: Microsomal Stability (% Remaining at 30 min)
Experimental: as §1

[3] = system: plasma RBP4; test: Plasma RBP4 lowering (ELISA) in cynomolgus monkey; type: in vivo
Experimental: (§2) Pharmacokinetic studies were conducted in male beagle dogs and male cynomolgus monkeys at SRI International, Menlo Park, CA. General procedures for animal care and housing were in accordance with the National Research Council (NRC) Guide for the Care and Use of Laboratory Animals (1996) and the Animal Welfare Standards incorporated in 9 CFR Part 3, 1991 and complied with guidelines set forth by the ARVO Animal Statement for the Use of Animals in Ophthalmic and Vision Research. During the course of the PK experiments, cynomolgus monkeys were individually housed in stainless steel primary enclosures in an AAALAC-accredited facility. Animals were fed a commercial monkey chow, and supplemental food was provided (fresh fruits, vegetables, seeds, and nuts). Reverse osmosis-purified drinking water was available at all times. Cynomolgus monkeys were maintained on a 12:12 hour light:dark cycle at the 64–84°F temperature and 30–70% humidity. Monkeys had access to enrichment opportunities (grooming devices, foraging devices, activity panels and mirrors) and were provided auditory stimuli and human interaction enrichment throughout the study. Blood samples were collected by venipuncture of a peripheral vein. Animals were acclimated to the squeeze back mechanism in their home cage by repeated, short periods of restraint during general husbandry procedures for at least 2 weeks prior to dosing. Animal were not removed from their cages for collection, and no anesthesia/analgesic agents were used for blood collection. […] For PK experiments, beagle dogs were individually housed in enclosed run (≥ 4 ft x 6 ft). Dogs were exposed to their daily ration of food, Harlan Teklad 2025C Certified Global 25% Protein Dog Diet. Water was provided from the public water supply (municipal tap water) ad libitum. Dogs were maintained on a 12:12 hour light:dark cycle at the 72–73°F temperature and 40–71% humidity. Every effort was made to minimize, if not eliminate, pain and suffering in all animals in this study. No restraining devices were used in blood collecting procedures. Dogs were gentle hand-held to restrain by trained technicians with the dogs foreleg extended for sample collection of blood from cephalic vein. Animals were awake during blood sample collection with no anesthesia/analgesic agents used, and positive reinforcement by the technician was provided following collection. […] All dogs were released back to the colony after the study was completed. Male beagle dogs and male cynomolgus monkey received a single i.v. dose of a test compound at 0.5 mg kg^−1 (dog) and 1 mg kg^−1 (monkey) or a single p.o. dose of a test compound of at 2 mg kg^−1 (dog) and 5 mg kg^−1 (monkey). The number of animals that was used in PK experiments is 3 per study group. Intravenous administration vehicle was 3% DMA/45% PEG300/12% ethanol/40% sterile water; p.o. vehicle was 2% Tween 80 in 0.9% saline. Blood was collected from dogs and monkeys at pre-dose and at 5, 15 and 30 min, and 1, 2, 4, 6, 8, 12, 24, 36 and 48 h post-dose in the i.v. arms and at 15 and 30 min, and 1, 2, 4, 6, 8, 12, 24, 36 and 48 h post-dose in the p.o. arm. […] Following protein extraction with acetonitrile, compound concentrations in plasma were measured by LC-MS/MS. The plasma drug level data were analyzed using WinNonlin software package; Model 201 (for i.v. bolus administration);was used for the analysis of i.v. data, and Model 200 (for extravascular administration) was used for the analysis of the p.o. data. […]

[4] = system: plasma RBP4; test: Plasma RBP4 lowering (ELISA) in beagle dog; type: in vivo
Experimental: as §2

[5] = system: PXR; design: method as in PMID 26181715; details: cited from earlier work
[6] = system: hERG channel; design: method as in PMID 26181715; details: cited from earlier work
[7] = system: standard screening panel of fifty-five GPCRs, enzymes, ion channels, and transporters; design: method as in PMID 26181715; details: cited from earlier work

remaining at 0.5 h, 1 μM [1]: 93%
remaining at 0.5 h, 1 μM [2]: 95%
SMILES: Cc1cc(C(=O)O)nc(N2C[C@H]3C[C@@H](c4ccccc4C(F)(F)F)C[C@H]3C2)n1 [BPN-14136]
plasma RBP4 reduction ([3]; single 1 mg kg^−1 i.v. dose): 84%
RBP4 reduction ([3]; single 5 mg kg^−1 oral dose, 24 h): 97%
RBP4 reduction ([3]; single 5 mg kg^−1 oral dose, 36 h): 94%
RBP4 reduction ([3]; single 5 mg kg^−1 oral dose, 48 h): 91%
maximum decrease in plasma RBP4 ([3]; single 5 mg kg^−1 oral dose, at 12 hours after dosing): 99%
plasma RBP4 lowering ([4]; single 0.5 mg kg^−1 i.v. dose): 50%
reduction of RBP4 ([4]; single 2 mg kg^−1 oral dose, 24 h): 53%
reduction of RBP4 ([4]; single 2 mg kg^−1 oral dose, 36 h): 42%
reduction of RBP4 ([4]; single 2 mg kg^−1 oral dose, 48 h): 39%
maximal plasma RBP4 reduction ([4]; single 2 mg kg^−1 oral dose, at 8 hours post-dosing): 60%
PXR activation [5]: no PXR activation
off-target activity at the hERG channel [6]: no significant off-target activity
off-target activity within standard screening panel [7]: no significant off-target activity
